From patent US20260070917A1, “CYCLIN DEPENDENT KINASE DEGRADERS AND METHODS OF USE THEREOF” (Differentiated Therapeutics Inc, priority 2023, published 2026)

Assays:
Type in all cases: cell-based
CDK9 = target: T1, CDK9 (Homo sapiens, UniProt P50750); assay: HiBit Assay Protocol for CDK9 (HIBIT protein quantification, degradation); details: HEK293-CDK9-Hibit cells, compound treatment for 6 hours; for Dmax: 6 h, read-out: CDK9 HIBIT Protein Quantification Maximum; for DC50: ABS DC50
T1 construct: host or cells: HEK293-CDK9-Hibit
T1 sequence (P50750 whole entry): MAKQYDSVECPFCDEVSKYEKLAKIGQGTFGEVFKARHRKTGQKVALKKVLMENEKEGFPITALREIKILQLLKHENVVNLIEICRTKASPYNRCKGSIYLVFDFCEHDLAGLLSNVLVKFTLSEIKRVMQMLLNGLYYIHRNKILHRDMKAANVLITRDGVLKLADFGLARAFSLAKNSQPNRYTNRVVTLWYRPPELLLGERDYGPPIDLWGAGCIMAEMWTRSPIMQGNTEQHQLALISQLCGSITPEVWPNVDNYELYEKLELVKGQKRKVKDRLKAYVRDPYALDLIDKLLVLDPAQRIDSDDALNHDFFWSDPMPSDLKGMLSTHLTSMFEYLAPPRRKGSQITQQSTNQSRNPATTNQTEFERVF
Description: HiBit Assay Protocol for CDK9
• 1. The culture medium for HEK293-CDK9-Hibit cell was prepared using DMEM with 10% FBS. • 2. Cells were cultivated in T-75 flasks in a cell culture incubator set at 37° C., 5% CO2, 95% relative humidity. Cells were allowed to reach 80-90% confluence before detaching and splitting. • 3. Cultivated cells were rinsed in T-75 flasks with 5 mL PBS. Aspirated off. Added 1.5 mL trypsin, and incubated the cells at 37° C. for approximately 5 minutes or until the cells detached and floated. • 4. Trypsin was inactivated by adding excess serum containing medium. • 5. Cells were harvested from flask into cell culture medium and then the cell number was counted. HEK293-CDK9-Hibit cells were seeded into 384-well plate (cell density: 1.6×10^5 cells/well/50 uL medium) in DMEM medium according to the plate map below and were incubated overnight at 37° C. and 5% CO2. • Note: Cell Cultured Medium: 90% DMEM+10% FBS+1% Penicillin-Streptomycin Liquid
• 1. Test compounds were dissolved at 3 mM DMSO stock solution. Transferred 45 uL of stock solution to a 384 pp-plate. Perform 3-fold, 10-point dilution via transferring 15 uL compound into 30 uL DMSO by using TECAN liquid handler. • 2. The plates were spinned at room temperature at 1,000 RPM for 1 minute. • 3. Transferred 50 nL of diluted compound from compound source plate into the cell plate by Echo. • 4. After compound treatment for 6 hours, removed the plate from incubators and equilibrated at room temperature for 15 minutes. Prepared the HiBit reagent consists of the following ratios: 10 mL of Nano-Glo®-HiBiT Lytic Buffer, 200 uL of Nano-Glo®-HiBiT Lytic Substrate and 100 uL of LgBiT Protein, mixed thoroughly. Added 20 uL of HiBit reagent into each well and spinned the plates at room temperature at 1,000 RPM for 1 minute to be detected. Plates were then shaken at 600 RPM at room temperature for 20 minutes, and read by EnVision. • 5. The inhibition activity was calculated following the formula below:
[formula] • Note: Where HC was obtained from cells treated with 0.1% DMSO only; LC was obtained from culture medium only. • 6. The ABS DC50 was calculated by fitting the Curve using Xlfit (v5.3.1.3), equation 201: […]

CDK2 = target: T2, CDK2 (Homo sapiens, UniProt P24941); assay: HiBit Assay Protocol for CDK2 (HIBIT protein quantification, degradation); details: HEK293-CDK2-Hibit cells, compound treatment for 6 hours; for DC50: ABS DC50
T2 construct: host or cells: HEK293-CDK2-Hibit
Description: HiBit Assay Protocol for CDK2
• 1. The culture medium for HEK293-CDK2-Hibit cells was prepared using DMEM with 10% FBS. • 2. Cells were cultivated in T-75 flasks in a cell culture incubator set at 37° C., 5% CO2, 95% relative humidity. Cells were allowed to reach 80-90% confluence before detaching and splitting. • 3. Cultivated cells were rinsed in T-75 flasks with 5 mL PBS. Aspirate off Added was 1.5 mL trypsin, and the cells were incubated at 37° C. for approximately 5 minutes or until the cells detached and floated. • 4. Trypsin was inactivated by adding excess serum containing medium. • 5. Cells were harvested from flask into cell culture medium and then the cell number was counted. HEK293-CDK2-Hibit cells were seeded into 384-well plate (cell density: 1.6×10^5 cells/well/50 uL medium) in DMEM medium according to the plate map below and incubated overnight at 37° C. and 5% CO2. • Note: Cell Cultured Medium: 90% DMEM+10% FBS+1% Penicillin-Streptomycin Liquid
(§1) • 1. Test compounds were dissolved at 10 mM DMS stock solution. 45 uL of stock solution was transferred to a 384 pp-plate. A 3-fold, 10-point dilution was performed via transferring 15 uL compound into 30 uL DMSO by using TECAN liquid handler. • 2. The plates were spinned at room temperature at 1,000 RPM for 1 minute. • 3. 50 nL of diluted compound was transferred from compound source plate into the cell plate by Echo. • 4. After compound treatment for 6 hours, the plate was removed from incubators and equilibrated at room temperature for 15 minutes. The HiBit reagent was prepared, consisting of the following ratios: 10 mL of Nano-Glo®-HiBiT Lytic Buffer, 200 μL of Nano-Glo®-HiBiT Lytic Substrate and 100 uL of LgBiT Protein, mixed thoroughly. 20 μL of HiBit reagent was added into each well and the plates were spinned at room temperature at 1,000 RPM for 1 minute to be detected. Then the plates were shaken at 600 RPM at room temperature for 20 minutes, and read by EnVision. • 5. The inhibition activity was calculated following the formula below:
(§2) [formula] • Note: Where HC is obtained from cells treated with […] only; LC is obtained from culture medium only. • 6. ABS DC50 was calculated by fitting the Curve using Xlfit (v5.3.1.3), equation 201: […]

CCNE1 = target: T3, CCNE1 (Homo sapiens, UniProt P24864); assay: HiBit Assay Protocol for CCNE1 (HIBIT protein quantification, degradation); details: HEK293-CCNE1-Hibit cells, compound treatment for 6 hours
T3 construct: host or cells: HEK293-CCNE1-Hibit
T3 sequence (P24864 whole entry): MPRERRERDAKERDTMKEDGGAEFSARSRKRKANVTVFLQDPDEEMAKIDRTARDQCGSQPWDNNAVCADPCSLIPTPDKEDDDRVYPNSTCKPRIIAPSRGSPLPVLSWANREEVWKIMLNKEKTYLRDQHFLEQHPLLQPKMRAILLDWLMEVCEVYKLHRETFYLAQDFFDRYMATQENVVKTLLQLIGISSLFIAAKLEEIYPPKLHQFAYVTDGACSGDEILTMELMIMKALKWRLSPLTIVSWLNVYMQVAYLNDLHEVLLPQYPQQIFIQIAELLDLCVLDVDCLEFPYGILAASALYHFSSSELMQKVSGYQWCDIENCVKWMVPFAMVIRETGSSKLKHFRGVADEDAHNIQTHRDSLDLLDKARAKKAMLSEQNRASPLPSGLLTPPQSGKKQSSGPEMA
Description: HiBit Assay Protocol for CCNE1
• 1. The culture medium for HEK293-CCNE1-Hibit cell was prepared using EMEM with […]. • 2. Cells were cultivated in T-75 flasks in a cell culture incubator set at 37° C., 5% CO2, 95% relative humidity. Cells were allowed to reach 80-90% confluence before detaching and splitting. • 3. Cultivated cells were rinsed in T-75 flasks with 5 mL PBS. Aspirate off Added was 1.5 mL trypsin, and the cells were incubated at 37° C. for approximately 5 minutes or until the cells detached and floated. • 4. Trypsin was inactivated by adding excess serum containing medium. • 5. Cells were harvested from flask into cell culture medium and then the cell number was counted. HEK293-CCNE1-Hibit cell were seeded into 384-well plate (cell density: 1.6×10^5 cells/well/50 uL medium) in EMEM medium according to the plate map below and incubated overnight at 37° C. and […]. • Note: Cell Cultured Medium: 90% EMEM+10% FBS+1% Penicillin-Streptomycin Liquid
as §1, with “mM DMSO” for “mM DMS”, “45 μL” for “45 uL”, “100 μL” for “100 uL”, “Protein, mix” for “Protein, mixed”
as §2

SMILES	Dmax (CDK9) [%]	CDK2 HIBIT Protein Quantification Maximum (CDK2) [%]	DC50 (CDK2) [nM]	CCNE1 HIBIT Protein Quantification Maximum (CCNE1) [%]	DC50 (CDK9) [nM]
CC1CCCC1N1C(=O)C2(CC2)c2cnc(NC3CCN(S(=O)(=O)N4CC5(CN(C(=O)CCc6cccc7c6n(C)c(=O)n7C6CCC(=O)NC6=O)C5)C4)CC3)nc21 (stereo not drawn) [Compound 19]	25	19		26	
CC1CCCC1N1C(=O)C2(CC2)c2cnc(NC3CCN(S(=O)(=O)N4CCC5(CCN(C(=O)CCc6cccc7c6n(C)c(=O)n7C6CCC(=O)NC6=O)C5)C4)CC3)nc21 (stereo not drawn) [Compound 21]	28	54	41	28	
CC1CCCC1N1C(=O)C2(CC2)c2cnc(NC3CCN(S(=O)(=O)N4CCCC45CCN(C(=O)CCCc4cccc6c4n(C)c(=O)n6C4CCC(=O)NC4=O)C5)CC3)nc21 (stereo not drawn) [Compound 24]	-1	41		21	
CC1CCCC1N1C(=O)C2(CC2)c2cnc(NC3CCN(S(=O)(=O)N4CC5(CCCCN5C(=O)CCCc5cccc6c5n(C)c(=O)n6C5CCC(=O)NC5=O)C4)CC3)nc21 (stereo not drawn) [Compound 26]	9	42		8	
CC1CCCC1N1C(=O)C2(CC2)c2cnc(NC3CCN(S(=O)(=O)N4CC5(CCCN(C(=O)CCCc6cccc7c6n(C)c(=O)n7C6CCC(=O)NC6=O)C5)C4)CC3)nc21 (stereo not drawn) [Compound 28]	8	42		8	
CC1CCCC1N1C(=O)C2(CC2)c2cnc(NC3CCN(S(=O)(=O)N4CC5(CN(C(=O)CCCc6cccc7c6n(C)c(=O)n7C6CCC(=O)NC6=O)C5)C4)CC3)nc21 (stereo not drawn) [Compound 29]	57	76	35	47	95.8
CC1CCCC1N1C(=O)C2(CC2)c2cnc(NC3CCN(S(=O)(=O)N4CC5C4CCN5C(=O)CCCc4cccc5c4n(C)c(=O)n5C4CCC(=O)NC4=O)CC3)nc21 (stereo not drawn) [Compound 31]	15	62	17	14	
CC1CCCC1N1C(=O)C2(CC2)c2cnc(NC3CCN(S(=O)(=O)N4CCC5(CCN(C(=O)CCCc6cccc7c6n(C)c(=O)n7C6CCC(=O)NC6=O)C5)C4)CC3)nc21 (stereo not drawn) [Compound 32]	41	59	86	22	

Other lines, results leading:

Dmax (CDK9) [%]	CDK2 HIBIT Protein Quantification Maximum (CDK2) [%]	DC50 (CDK2) [nM]	CCNE1 HIBIT Protein Quantification Maximum (CCNE1) [%]	DC50 (CDK9) [nM]	SMILES
5	63	12	20		CC1CCCC1N1C(=O)C2(CC2)c2cnc(NC3CCN(S(=O)(=O)N4CC5(CCCN(C(=O)CCc6cccc7c6n(C)c(=O)n7C6CCC(=O)NC6=O)C5)C4)CC3)nc21 (stereo not drawn) [Compound 18]
71	46		29	86.3	CC1CCCC1N1C(=O)C2(CC2)c2cnc(NC3CCN(S(=O)(=O)N4CC5(CCN(C(=O)CCc6cccc7c6n(C)c(=O)n7C6CCC(=O)NC6=O)CC5)C4)CC3)nc21 (stereo not drawn) [Compound 20]
35	57	44	18		CC1CCCC1N1C(=O)C2(CC2)c2cnc(NC3CCN(S(=O)(=O)N4CC(N(C)C(=O)CCCc5cccc6c5n(C)c(=O)n6C5CCC(=O)NC5=O)C4)CC3)nc21 (stereo not drawn) [Compound 22, 4-(1-(2,6-dioxopiperidin-3-yl)-3-methyl-2-oxo-2,3-dihydro-1H-benzo[d]imidazol-4-yl)-N-methyl-N-(1-((4-((7′-(2-methylcyclopentyl)-6′-oxo-6′,7′-dihydrospiro[cyclopropane-1,5′-pyrrolo[2,3-d]pyrimidin]-2′-yl)amino)piperidin-1-yl)sulfonyl)azetidin-3-yl)butanamide]
49	64	98	20		CC1CCCC1N1C(=O)C2(CC2)c2cnc(NC3CCN(S(=O)(=O)N4CC5CN(C(=O)CCCc6cccc7c6n(C)c(=O)n7C6CCC(=O)NC6=O)CC5C4)CC3)nc21 (stereo not drawn) [Compound 23]
15	29		25		CC1CCCC1N1C(=O)C2(CC2)c2cnc(NC3CCN(S(=O)(=O)N4CCC5(CCCN5C(=O)CCCc5cccc6c5n(C)c(=O)n6C5CCC(=O)NC5=O)C4)CC3)nc21 (stereo not drawn) [Compound 25]
49	57	19	27		CC1CCCC1N1C(=O)C2(CC2)c2cnc(NC3CCN(S(=O)(=O)N4CCN(C(=O)CCCc5cccc6c5n(C)c(=O)n6C5CCC(=O)NC5=O)CC4)CC3)nc21 (stereo not drawn) [Compound 27]
75	72	11	37	17.6	CC1CCCC1N1C(=O)C2(CC2)c2cnc(NC3CCN(S(=O)(=O)N4CC5(CCN(C(=O)CCCc6cccc7c6n(C)c(=O)n7C6CCC(=O)NC6=O)CC5)C4)CC3)nc21 (stereo not drawn) [Compound 30]
